Test results published in patent publication US20240368150A1 (Hoffmann-La Roche Inc., priority 2021, published 2024).
Read-outs that look alike come from different tables or passages of the source.

What was measured:
[1] = system: primary human T-cells; assay: Proliferation assay after 5 days (CellTiter-Glo, CD3 stimulation; PBS counter screen); type: cell-based; conditions: Homo sapiens, T-cell, 120 h; for Emax: read-out: Emax proliferation (% activation); for EC50: read-out: Tcell Proliferation CD3 EC50
In short: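 Primary human T-cells, with or without CD3 stimulation, exposed to compounds for 5 days; cell number read as ATP by CellTiter-Glo 2.0 luminescence after 45 min equilibration and 15 min reagent incubation at room temperature. Compounds activating unstimulated cells or reducing viability were flagged.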

[2] = system: primary human T-cells
[3] = CD3 stimulation, 5 days, normalized to reference compound A1 as stimulator control = 100%, DMSO neutral control
[4] = primary human T-cells, CD3 stimulation, CellTiter-Glo after 5 days, EC50 of fitted sigmoidal curve

Row | SMILES | Emax [1, 3] [%] | EC50 [1, 4] [nM] | EC50 [2] [nM] | Emax [1] [%] | EC50 [1] [nM]
1 | CC(C)(C)NC(=O)c1nc(-c2ccc3c(c2)N(Cc2ccc(Cl)cc2)C(=O)[C@@H](N)CS3(=O)=O)no1 [Example 354, 3-[(3R)-3-amino-5-[(4-chlorophenyl)methyl]-1,1,4-trioxo-2,3-dihydro-1λ^6,5-benzothiazepin-7-yl]-N-tert-butyl-1,2,4-oxadiazole-5-carboxamide] | 77 | 4710 | > 10000 |  | 
2 | CC(C)OC(=O)N1CC2CC(c3nc(-c4cc5c(cc4F)S(=O)(=O)C[C@H](N)C(=O)N5Cc4ccc(Cl)cc4)no3)(C2)C1 [Example 316, isopropyl 1-[3-[(3R)-3-amino-5-[(4-chlorophenyl)methyl]-8-fluoro-1,1,4-trioxo-2,3-dihydro-1λ^6,5-benzothiazepin-7-yl]-1,2,4-oxadiazol-5-yl]-3-azabicyclo[3.1.1]heptane-3-carboxylate] | 112 |  | 679 |  | 
3 | CC(N)(c1nnc(-c2ccc3c(c2)N(Cc2ccc(Cl)cc2)C(=O)[C@@H](N)CS3(=O)=O)o1)C(F)(F)F (stereo partly drawn) [Example 362, (3R)-3-amino-7-[5-(1-amino-2,2,2-trifluoro-1-methyl-ethyl)-1,3,4-oxadiazol-2-yl]-5-[(4-chlorophenyl)methyl]-1,1-dioxo-2,3-dihydro-1λ^6,5-benzothiazepin-4-one] | 84 | 3720 | 1730 |  | 
4 | CN1CC(c2nnc(-c3ccc4c(c3)N(Cc3ccc(OC(F)(F)F)cc3)C(=O)[C@@H](N)CS4(=O)=O)o2)CC(F)(F)C1 (stereo partly drawn) [Example 421, (3R)-3-amino-7-[5-(5,5-difluoro-1-methyl-3-piperidyl)-1,3,4-oxadiazol-2-yl]-1,1-dioxo-5-[[4-(trifluoromethoxy)phenyl]methyl]-2,3-dihydro-1λ^6,5-benzothiazepin-4-one] | 123 | 2480 | 3240 |  | 
5 | CC(C)(C)c1nc(-c2cc3c(cc2F)S(=O)(=O)C[C@H](N)C(=O)N3Cc2ccc(OCC3CCOCC3)cc2)no1 [Example 353, (3R)-3-amino-7-(5-tert-butyl-1,2,4-oxadiazol-3-yl)-8-fluoro-1,1-dioxo-5-[[4-(tetrahydropyran-4-ylmethoxy)phenyl]methyl]-2,3-dihydro-1λ^6,5-benzothiazepin-4-one] | 108 | 7240 | 3250 |  | 
6 | Cc1ccc(OC(=O)N2CCC(C)(c3nnc(-c4ccc5c(c4)N(Cc4ccc(Cl)cc4)C(=O)[C@@H](N)CS5(=O)=O)o3)CC2)cn1 [Example 383, (6-methyl-3-pyridyl) 4-[5-[(3R)-3-amino-5-[(4-chlorophenyl)methyl]-1,1,4-trioxo-2,3-dihydro-1λ^6,5-benzothiazepin-7-yl]-1,3,4-oxadiazol-2-yl]-4-methyl-piperidine-1-carboxylate] |  |  | 857 | 94 | 1320
7 | CC(=O)NCCCCCCCCCCCOc1ccc(CN2C(=O)[C@@H](N)CS(=O)(=O)c3cc(F)c(-c4nnc(C(C)(C)C)o4)cc32)cc1 [Example 235, N-[11-[4-[[(3R)-3-amino-7-(5-tert-butyl-1,3,4-oxadiazol-2-yl)-8-fluoro-1,1,4-trioxo-2,3-dihydro-1λ^6,5-benzothiazepin-5-yl]methyl]phenoxy]undecyl]acetamide] | 108 | 46.6 | 170 |  | 
8 | N[C@H]1CS(=O)(=O)c2cc(F)c(-c3nnc(NC4(CCO)CCCCC4)o3)cc2N(Cc2ccc(Cl)cc2)C1=O [Example 483, (3R)-3-amino-5-[(4-chlorophenyl)methyl]-8-fluoro-7-[5-[[l-(2-hydroxyethyl)cyclohexyl]amino]-1,3,4-oxadiazol-2-yl]-1,1-dioxo-2,3-dihydro-1λ^6,5-benzothiazepin-4-one] | 79 | 1540 | 2600 |  | 
9 | CC(C)(C)n1nnc(-c2ccc3c(c2)N(Cc2ccc(OC(F)(F)F)cc2)C(=O)[C@@H](N)CS3(=O)=O)n1 [Example 31, (3R)-3-amino-7-(2-tert-butyltetrazol-5-yl)-1,1-dioxo-5-[[4-(trifluoromethoxy)phenyl]methyl]-2,3-dihydro-1λ^6,5-benzothiazepin-4-one] | 97 | 276 | 344 |  | 
10 | N[C@H]1CS(=O)(=O)c2cc(F)c(-c3nnc(C4(CO)CC4)o3)cc2N(Cc2ccc(Cl)cc2)C1=O [Example 65, (3R)-3-amino-5-[(4-chlorophenyl)methyl]-8-fluoro-7-[5-[1-(hydroxymethyl)cyclopropyl]-1,3,4-oxadiazol-2-yl]-1,1-dioxo-2,3-dihydro-1λ^6,5-benzothiazepin-4-one] | 77 | 1060 | 3850 |  | 
11 | CC(C)(C)c1nnc(-c2cc3c(cc2F)S(=O)(=O)C[C@H](NC(=O)CCCN)C(=O)N3Cc2ccc(Cl)cc2)o1 [Example 267, 4-amino-N-[(3R)-7-(5-tert-butyl-1,3,4-oxadiazol-2-yl)-5-[(4-chlorophenyl)methyl]-8-fluoro-1,1,4-trioxo-2,3-dihydro-1λ^6,5-benzothiazepin-3-yl]butanamide] | 74 | 3070 | 5440 |  | 
12 | COC(F)(c1nc(-c2cc3c(cc2F)S(=O)(=O)C[C@H](N)C(=O)N3Cc2ccc(F)cc2)no1)C(F)(F)F (stereo partly drawn) [Example 513, (3R)-3-amino-8-fluoro-5-[(4-fluorophenyl)methyl]-1,1-dioxo-7-[5-(1,2,2,2-tetrafluoro-1-methoxy-ethyl)-1,2,4-oxadiazol-3-yl]-2,3-dihydro-1λ^6,5-benzothiazepin-4-one] | 157 | 285 | 307 |  | 
13 | N[C@H]1CS(=O)(=O)c2cc(F)c(-c3nnc(NC4CNCC(F)(F)C4)o3)cc2N(Cc2ccc(Cl)cc2)C1=O (stereo partly drawn) [Example 489, (3R)-3-amino-5-[(4-chlorophenyl)methyl]-7-[5-[(5,5-difluoro-3-piperidyl)amino]-1,3,4-oxadiazol-2-yl]-8-fluoro-1,1-dioxo-2,3-dihydro-1λ^6,5-benzothiazepin-4-one] | 55 | 7240 | 4060 |  | 
14 | N[C@H]1CS(=O)(=O)c2cc(F)c(-c3nnc(N4C[C@H]5C[C@@H](C4)C5(F)F)o3)cc2N(Cc2ccc(Cl)cc2)C1=O [Example 469, (3R)-3-amino-5-[(4-chlorophenyl)methyl]-8-fluoro-1,1-dioxo-7-[5-[(1R,5S)-6,6-difluoro-3-azabicyclo[3.1.1]heptan-3-yl]-1,3,4-oxadiazol-2-yl]-2,3-dihydro-1λ^6,5-benzothiazepin-4-one] | 105 | 170 | 2550 |  | 
15 | COC(C#N)c1nnc(-c2ccc3c(c2)N(Cc2ccc(Cl)cc2)C(=O)[C@@H](N)CS3(=O)=O)o1 (stereo partly drawn) [Example 370, 2-[5-[(3R)-3-amino-5-[(4-chlorophenyl)methyl]-1,1,4-trioxo-2,3-dihydro-1λ^6,5-benzothiazepin-7-yl]-1,3,4-oxadiazol-2-yl]-2-methoxy-acetonitrile] | 31 | > 10000 | 5100 |  | 
16 | COC1CCN(c2ccc(CN3C(=O)[C@@H](N)CS(=O)(=O)c4ccc(-c5nnc(C(C)(C)C)o5)cc43)cc2)CC1 [Example 447, (3R)-3-amino-7-(5-tert-butyl-1,3,4-oxadiazol-2-yl)-5-[[4-(4-methoxy-1-piperidyl)phenyl]methyl]-1,1-dioxo-2,3-dihydro-1λ^6,5-benzothiazepin-4-one] | 113 | > 10000 | 2540 |  | 
17 | Cc1ccc(-c2nnc(-c3cc4c(cc3F)S(=O)(=O)C[C@H](N)C(=O)N4Cc3ccc(Cl)cc3)o2)cn1 [Example 133, (3R)-3-amino-5-[(4-chlorophenyl)methyl]-8-fluoro-7-[5-(6-methyl-3-pyridyl)-1,3,4-oxadiazol-2-yl]-1,1-dioxo-2,3-dihydro-1λ^6,5-benzothiazepin-4-one] | 144 | 324 | 1190 |  | 
18 | CC(C)(CO)c1nnc(-c2cc3c(cc2F)S(=O)(=O)C[C@H](N)C(=O)N3Cc2ccc(C#N)cc2)o1 [Example 188, 4-[[(3R)-3-amino-8-fluoro-7-[5-(2-hydroxy-1,1-dimethyl-ethyl)-1,3,4-oxadiazol-2-yl]-1,1,4-trioxo-2,3-dihydro-1λ^6,5-benzothiazepin-5-yl]methyl]benzonitrile] | 29 | > 10000 | 3180 |  | 
19 | CC(C)N(C)C(=O)c1nnc(-c2cc3c(cc2F)S(=O)(=O)C[C@H](N)C(=O)N3Cc2ccc(Cl)cc2)o1 [Example 114, N-isopropyl-N-methyl-5-[(3R)-3-amino-5-[(4-chlorophenyl)methyl]-8-fluoro-1,1,4-trioxo-2,3-dihydro-1λ^6,5-benzothiazepin-7-yl]-1,3,4-oxadiazole-2-carboxamide] | 65 | > 10000 | 756 |  | 
20 | C#CCC(C)(C)c1nnc(-c2cc3c(cc2F)S(=O)(=O)C[C@H](N)C(=O)N3Cc2ccc(OC(F)(F)F)cc2)o1 [Example 450, (3R)-3-amino-7-[5-(1,1-dimethylbut-3-ynyl)-1,3,4-oxadiazol-2-yl]-8-fluoro-1,1-dioxo-5-[[4-(trifluoromethoxy)phenyl]methyl]-2,3-dihydro-1λ^6,5-benzothiazepin-4-one] | 114 | 71.5 | 73.1 |  | 
21 | CC1(Nc2nc(-c3cc4c(cc3F)S(=O)(=O)C[C@H](N)C(=O)N4Cc3ccc(Cl)cc3)no2)CC(F)(F)C1 [Example 201, (3R)-3-amino-5-[(4-chlorophenyl)methyl]-7-[5-[(3,3-difluoro-1-methyl-cyclobutyl)amino]-1,2,4-oxadiazol-3-yl]-8-fluoro-1,1-dioxo-2,3-dihydro-1λ^6,5-benzothiazepin-4-one] | 156 | 229 | 828 |  | 
